Results on one substance are retold here after patent US7851471B2, “Compounds I” (AstraZeneca AB (PUBL), priority 2007, dated 2010).

Test [1] deals with JEG-3 cells (choriocarcinoma cell line). Kind of test: Leptin assay in non-recombinant system: [3H]-thymidine incorporation / proliferation of JEG-3 cells. The format is cell-based. As to the method: In JEG-3 cells (choriocarcinoma cell line) leptin is able to stimulate proliferation up to 3 fold (Biol. Reprod. (2007) 76: 203-10). […] The radioactivity incorporated by the cells is an index of their proliferative activity and is measured in counts per minute (CPM) with a liquid scintillation beta counter.
This finding can be applied to test whether a compound is able to either reproduce the effect of leptin on cell proliferation (leptin receptor agonist mimetic) (i.e., a given compound will cause an increase in incorporated [^3H]-Thymidine by the cells) or to inhibit the effect of leptin (antagonistic effect) by preventing the leptin-mediated increase in [H]-thymidine incorporation.
(In general: Uptake of a labelled nucleoside into DNA is a usual measure of proliferation.)

For test [2] the test system is unchanged. The following applies: Biol. Reprod. (2007) 76: 203-10; cited from earlier work.

“Leptin: a hormone synthesized in fat cells that is believed to act in the hypothalamus to reduce food intake and body weight”: in test [1] (FIG. 5), the “concentration giving maximal effect on [3H]-thymidine incorporation” value was found to be 100 nM. Further, in test [1] (FIG. 5, read-out: concentration-dependent increase in [3H]-thymidine incorporation, EC50), the EC50 was determined as 2.1 nM. In addition, in test [2], the stimulation of proliferation result is “up to 3 fold”.
